Test results from patent EP0059683A2, “7-Acylamido-3-cephem-4-carboxylic acids, process for their preparation, pharmaceutical compositions containing them and their use” (CIBA-GEIGY AG, priority 1981, dated 1982).
≈ marks a conversion by molar mass, not a printed value.

Assays:
[1] = system: Pseudomonas aeruginosa 799/61; assay: Antibiotic activity in vitro, agar dilution method in DST agar (MIC); assay type: cell-based; conditions: for MIC: Pseudomonas aeruginosa, 799/61
Description: (§1) A. Die antibiotische Aktivität der Testverbindungen in vitro wurde durch die Agarverdünnungsmethode nach Ericsson, H.M., und Sherris, S.C., 1971, Acta Path. Microb. Scand. Section B, Suppl. No. 217, Bd. 1-90, in DST Agar ermittelt. Die gefundenen, das Wachstum der Testorganismen noch hemmenden Minimalkonzentrationen (MIC = minimum inhibiting concentrations) werden in Mikrogramm pro Milliliter […] für die geprüften Verbindungen in der Tabelle 1 angegeben.

[2] = system: Klebsiella pneumoniae 327; assay: as above; assay type: cell-based; conditions: for MIC: Klebsiella pneumoniae, 327
Description: as §1

[3] = system: Salmonella typhimurium 277; assay: as above; assay type: cell-based; conditions: for MIC: Salmonella enterica, TYPHIMURIUM
Description: as §1

Escherichia coli 205 [4] = assay: as above; assay type: cell-based; conditions: for MIC: Escherichia coli, 205
Description: as §1

Proteus morganii 2359 = assay: Chemotherapeutic efficacy in vivo against systemic infection in mice (ED50); conditions: s.c., female SPF MF2 mice; for ED50: Morganella morganii, 2359, sc
Description: (§2) B. Die chemotherapeutische Wirksamkeit in vivo gegen systemische Infektionen in weiblichen SPF, MF2 Mäusen wurde nach der Methode von Zak., 0., et al., 1979, Drugs Exptl. Clin. Res. 5, 45-59, ermittelt. Die gefundenen ED50-Werte in Milligramm Substanz pro Kilogramm Maus (mg/kg) für eine Anzahl von Mikroorganismen werden für die oral (p.o.) oder subcutan (s.c.) applizierten Testverbindungen in der Tabelle 2 angegeben.

[5] = system: Staphylococcus anvens 10B; assay: as above; conditions: female SPF MF2 mice; for ED50: Staphylococcus, 10B, sc
Description: as §2

Escherichia coli 205 [6] = assay: as above; conditions: s.c., female SPF MF2 mice; for ED50: Escherichia coli, 205, sc
Description: as §2

Structure (SMILES)	MIC Pseudomonas aeruginosa 799/61 [1]	MIC Klebsiella pneumoniae 327 [2]	MIC Salmonella typhimurium 277 [3]	MIC Escherichia coli 205 (Escherichia coli 205 [4])	ED50 Proteus morganii 2359 (Proteus morganii 2359)	ED50 Staphylococcus anvens 10B ([5]; s.c.)	ED50 Escherichia coli 205 (Escherichia coli 205 [6])	MIC [1]	MIC [2]	MIC [3]	MIC (Escherichia coli 205 [4])	ED50 (Proteus morganii 2359)	ED50 [5]	ED50 (Escherichia coli 205 [6])
NC(=O)c1cc[n+](CC2=C(C(=O)[O-])N3C(=O)C(NC(=O)C(NC(=O)OC[C@@H](N)C(=O)O)c4csc(N)n4)C3SC2)cc1 (stereo partly drawn) [Testverbindung 26, 3-(4-Carbamoylpyridiniomethyl)-7β-[(2R,S)-2-((2R)-2-amino-2-car-boxyäthoxycarbonylamino)-2-(2-aminothiazol-4-yl)-acetamido]-3-cephem-4-carboxylat]	0,5 µg/ml	0,1 µg/ml	0,1 µg/ml	0,1 µg/ml	70 mg/kg	>30 mg/kg	1 mg/kg	–	–	–	–	–	–	–
NC(=O)c1cc[n+](CC2=C(C(=O)[O-])N3C(=O)[C@@H](NC(=O)C(NC(=O)OC[C@@H](N)C(=O)O)c4csc(N)n4)[C@H]3SC2)cc1 (stereo partly drawn) [Testverbindung 26]	–	–	–	–	–	–	–	0.5 µg/mL (≈ 0.806 µM)	0.5 µg/mL (≈ 0.806 µM)	0.2 µg/mL (≈ 0.322 µM)	0.2 µg/mL (≈ 0.322 µM)	10 mg/kg	15 mg/kg	9 mg/kg
CO[C@@]1(NC(=O)CCCNC(=O)OC[C@@H](N)C(=O)O)C(=O)N2C(C(=O)O)=C(COC(C)=O)CS[C@@H]21 [Testverbindung 27]	–	–	–	–	–	–	–	0.5 µg/mL (≈ 0.964 µM)	1 µg/mL (≈ 1.93 µM)	1 µg/mL (≈ 1.93 µM)	1 µg/mL (≈ 1.93 µM)	8 mg/kg	> 30 mg/kg	14 mg/kg
CO[C@@]1(NC(=O)CCCNC(=O)OC[C@@H](N)C(=O)O)C(=O)N2C(C(=O)O)=C(CSc3nnnn3C)CS[C@@H]21 [Testverbindung 28]	–	–	–	–	–	–	–	0.2 µg/mL (≈ 0.348 µM)	0.5 µg/mL (≈ 0.87 µM)	0.5 µg/mL (≈ 0.87 µM)	1 µg/mL (≈ 1.74 µM)	5 mg/kg	> 30 mg/kg	4 mg/kg
CC(=O)OCC1=C(C(=O)O)N2C(=O)[C@@H](NC(=O)CCCNC(=O)OC[C@@H](N)C(=O)O)[C@H]2SC1 [Testverbindung 29]	–	–	–	–	–	–	–	1 µg/mL (≈ 2.05 µM)	4 µg/mL (≈ 8.19 µM)	2 µg/mL (≈ 4.09 µM)	32 µg/mL (≈ 65.5 µM)	75 mg/kg	> 30 mg/kg	7 mg/kg
Cn1nnnc1SCC1=C(C(=O)O)N2C(=O)[C@@H](NC(=O)CCCNC(=O)OC[C@@H](N)C(=O)O)[C@H]2SC1 [Testverbindung 30]	–	–	–	–	–	–	–	0.5 µg/mL (≈ 0.918 µM)	0.5 µg/mL (≈ 0.918 µM)	0.5 µg/mL (≈ 0.918 µM)	2 µg/mL (≈ 3.67 µM)	10 mg/kg	> 30 mg/kg	1.7 mg/kg
